Assay results published in patent US8952059B2, “Acetyl L-carnitine for the preparation of a medicament for the prevention of painful peripheral neuropathy in patients with type 2 diabetes” (Sigma-Tau Industrie Farmaceutiche Riunite S.P.A., priority 2005, dated 2015).
Where two headings read alike, the source gives them in different places.

Columns and labels:
[1] = tested on: diabetic patients suffering from neuropathy; details: cited from earlier work
[2] = tested on: patients with type 2 diabetes (symptoms of painful peripheral neuropathy); assay: Clinical Trial BM 14329: multicentre, randomised, double-blind, placebo-controlled, 52 weeks; assay type: in vivo, human; details: for Patients with symptom: Pain / Patients with symptom: Pain, hyperaesthesia, paraesthesia: 3.0 g/day; for Patients with symptom: Pain: n = 217 type 2 diabetes patients without the symptom at basal; for Patients with symptom: Pain, hyperaesthesia, paraesthesia: n = 217 type 2 diabetes patients without the symptoms at basal
Procedure: (§1) A multicentre, randomised, double-blind, placebo-controlled clinical trial of 52 weeks' duration was conducted in patients with type 2 diabetes suffering from diabetic peripheral neuropathy.
(§2) The patients were treated with acetyl L-carnitine at a dose of 0.5 grams or 1 gram, three times daily, or with placebo for 52 weeks.
(§3) The patients recruited into the trial were patients of male and female sex and were aged from 18 to 70 years, in whom diabetes had been diagnosed more than one year earlier and presenting HbA1c greater than 5.9%.
(§4) After 12, 26 and 52 weeks of treatment, the presence and intensity of pain, paraesthesia and hyperaesthesia, amongst other variables, were assessed as characteristic symptoms of painful peripheral neuropathy in patients who at the time of recruitment presented no such symptoms.

[3] = tested on: patients with type 2 diabetes (symptoms of painful peripheral neuropathy); assay: Clinical Trial BM 14330: multicentre, randomised, double-blind, placebo-controlled, same characteristics as Example 1; assay type: in vivo, human; details: for Patients with symptom: Pain / Patients with symptom: Pain, hyperaesthesia, paraesthesia: 3.0 g/day; for Patients with symptom: Pain: n = 181 type 2 diabetes patients without the symptom at basal; for Patients with symptom: Pain, hyperaesthesia, paraesthesia: n = 181 type 2 diabetes patients without the symptoms at basal
Procedure: as §1, §2, §3, §4
A multicentre randomised, double-blind, placebo-controlled clinical trial was conducted with the same characteristics as the clinical trial described in Example 1.

CC(=O)O[C@H](CC(=O)[O-])C[N+](C)(C)C [Acetyl L-carnitine, acetyl L-carnitine]
Nerve conduction velocity ([1]; diabetic patients suffering from neuropathy, Drugs 1997 September: 54 (3) 414-421): improves nerve conduction velocity
Nerve conduction velocity ([1]; diabetic patients suffering from polyneuropathy, Journal of the Neurological Sciences, 1997, Suppl. to Vol 150): improves nerve conduction velocity
Relief of pain symptoms and regeneration of nerve fibres ([1]; patients suffering from stabilised diabetic neuropathy, Diabetes Care, 2005, 28(1): 89-94): useful for relieving the pain symptoms and for regenerating nerve fibres
Patients with symptom: Pain ([2]; 12 weeks): 17.1%
Patients with symptom: Pain, hyperaesthesia, paraesthesia ([2]; 12 weeks): 35.5%
Patients with symptom: Pain ([2]; 26 weeks): 20.3%
Patients with symptom: Pain, hyperaesthesia, paraesthesia ([2]; 26 weeks): 38.6%
Patients with symptom: Pain ([2]; 52 weeks): 29.5%
Patients with symptom: Pain, hyperaesthesia, paraesthesia ([2]; 52 weeks): 47.5%
Prevention of symptoms typical of diabetic painful peripheral neuropathy (pain, hyperaesthesia, paraesthesia) ([2]; patients without such symptoms at entry, only in type 2 diabetes and at the higher dose): capable not only of curing but also of preventing the symptoms
Ability to prevent the onset of symptoms associated with diabetic painful peripheral neuropathy ([2]; summary of Tables 1-3, 3 grams/day): statistically significant ability to prevent the onset of symptoms
Curative effect on symptoms of diabetic peripheral neuropathy already present at the start of the trial ([2]; treatment for 26 or 52 weeks, effect better only in patients with type 2 diabetes): capable of curing the symptoms of diabetic peripheral neuropathy
Patients with symptom: Pain ([3]; 12 weeks): 27.6%
Patients with symptom: Pain, hyperaesthesia, paraesthesia ([3]; 12 weeks): 42.5%
Patients with symptom: Pain ([3]; 52 weeks): 35.9%
Patients with symptom: Pain, hyperaesthesia, paraesthesia ([3]; 52 weeks): 48.1%
Patients with symptom: Pain ([3]; Table 5, head prints 12 weeks): 28.7%
Patients with symptom: Pain, hyperaesthesia, paraesthesia ([3]; Table 5, head prints 12 weeks): 43.1%
Ability to prevent the onset of symptoms associated with diabetic painful peripheral neuropathy ([3]; summary of Tables 4-6, 3 grams/day): statistically significant ability to prevent the onset of symptoms
